In patent US20250163043A1 (TRANSTHERA SCIENCES (NANJING), INC., priority 2021, published 2025):

What was measured:
Assay type in all cases: biochemical
CDK9/CycT1 = CDK9/CycT1 (Homo sapiens, UniProt P50750); assay: ADP-Glo kinase assay on CDK enzymatic activity, CDK9/CycT1; details: 10 concentrations from 10 μM, 4-fold, 60 min room temperature
Outline: (§1)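 Enzyme activity was measured by ADP-Glo luminescence following 60 min turnover of CDK tide peptide at room temperature. Compounds spanned ten 4-fold dilutions from 10 μM final, with 0.5% DMSO.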

CDK1/CycE1 = CDK1/CycE1 (Homo sapiens, UniProt P06493); assay: ADP-Glo kinase assay on CDK enzymatic activity, CDK1/CycE1; details: ADP-Glo; 10 concentrations from 10 μM, 4-fold; 60 min room temperature; read-out: CDK1/CycE1/nM (IC50)
Outline: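 Compounds in 10-point 4-fold dilutions from 10 μM final, preincubated 10 min with kinase, then substrate/ATP added; 60 min reaction at room temperature. ADP-Glo luminescence read.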

CDK2/CycA2 = CDK2/CycA2 (Homo sapiens, UniProt P24941); assay: ADP-Glo kinase assay on CDK enzymatic activity, CDK2/CycA2; details: 10 concentrations from 10 μM, 4-fold, 60 min room temperature
Outline: as §1

CDK3/CycE1 = CDK3/CycE1 (Homo sapiens, UniProt Q00526); assay: ADP-Glo kinase assay on CDK enzymatic activity, CDK3/CycE1; details: 10 concentrations from 10 μM, 4-fold, 60 min room temperature
From the text: (§2) Test samples: the compounds of the present invention, having structures shown above.
(§3) ADP-Glo Kinase Assay (ADP-Glo kinase kit), DMSO (dimethyl sulfoxide), CDK9/CycT1 (cyclin-dependent kinase 9/cyclin T1), CDK tide (cyclin-dependent kinase substrate peptide fragments), CDK1/CycE1 (cyclin-dependent kinase 1/cyclin E1), CDK2/CycA2 (cyclin-dependent kinase 2/cyclin A2), CDK3/CycE1 (cyclin-dependent kinase 3/cyclin E1), CDK4/CycD3 (cyclin-dependent kinase 4/cyclin D3), CDK5/p25NCK (cyclin-dependent kinase 5/p25), and AZD 4573.
(§4) A 384-well white plate, a 96-well plate, a microplate oscillator, a centrifuge, and a microplate reader.
(§5) The compounds were dissolved in DMSO and diluted 4-fold in the 96-well plate to obtain stock solutions with 10 concentration gradients, and added into a 384-well plate system to obtain a series of 10 concentration gradients of compound solutions with final concentrations of 10 μM starting and 4-fold gradient decreasing. 1 μM AZD4573 was used as compound positive control (PC) and 0.5% DMSO as solvent vehicle control (VC), ten duplicated wells each for PC and VC.
(§6) 1 μL of compound solution and 2 μL of 2× kinase solution were transferred to each well, and the plate was centrifuged at 1000 g for 30 s and left at room temperature for 10 min. A mixture of 2× substrate and ATP was prepared in 1× kinase buffer. The reaction was started after adding 2 μL of substrate and ATP into the plate. The plate was centrifuged at 1000 g for 30 s. The assay plate was closed and left at room temperature for 60 min. The reaction system was added with 4 μL of ADP Glo reagent, centrifuged at 1000 rpm for 1 min, and incubated at room temperature for 40 min. The reaction system was added with 8 μL of kinase assay reagent, centrifuged at 1000 rpm for 1 min and incubated at room temperature for 40 min. The […] was read on Biotek.
(§7) The inhibition rate was calculated according to the following formula: […]
(§8) Lumcmpd: compound fluorescence reading; Lumpositive: average value of the fluorescence reading of positive compound control; Lumvehicle: average value of the fluorescence reading of solvent vehicle control.
(§9) IC50 values were fitted using GraphPad 7.0 based on inhibition rates of compounds at different concentrations.

CDK5/p25NCK = CDK5/p25NCK (Homo sapiens, UniProt Q00535); assay: ADP-Glo kinase assay on CDK enzymatic activity, CDK5/p25NCK; details: 10 concentrations from 10 μM, 4-fold, 60 min room temperature
From the text: as §2, §3, §4, §5, §6, §7, §8, §9

Sequence of CDK9/CycT1 (P50750 whole entry): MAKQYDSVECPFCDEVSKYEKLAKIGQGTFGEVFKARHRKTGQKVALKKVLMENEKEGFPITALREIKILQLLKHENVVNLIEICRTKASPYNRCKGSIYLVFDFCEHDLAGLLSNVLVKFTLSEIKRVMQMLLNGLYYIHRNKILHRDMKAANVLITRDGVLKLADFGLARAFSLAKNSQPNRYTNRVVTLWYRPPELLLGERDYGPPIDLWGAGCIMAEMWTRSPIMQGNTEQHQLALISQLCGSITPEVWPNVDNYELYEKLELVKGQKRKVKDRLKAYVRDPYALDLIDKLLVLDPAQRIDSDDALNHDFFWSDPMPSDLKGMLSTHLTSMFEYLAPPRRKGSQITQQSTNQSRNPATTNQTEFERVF
Sequence of CDK9/CycT1 (O60563 whole entry partner): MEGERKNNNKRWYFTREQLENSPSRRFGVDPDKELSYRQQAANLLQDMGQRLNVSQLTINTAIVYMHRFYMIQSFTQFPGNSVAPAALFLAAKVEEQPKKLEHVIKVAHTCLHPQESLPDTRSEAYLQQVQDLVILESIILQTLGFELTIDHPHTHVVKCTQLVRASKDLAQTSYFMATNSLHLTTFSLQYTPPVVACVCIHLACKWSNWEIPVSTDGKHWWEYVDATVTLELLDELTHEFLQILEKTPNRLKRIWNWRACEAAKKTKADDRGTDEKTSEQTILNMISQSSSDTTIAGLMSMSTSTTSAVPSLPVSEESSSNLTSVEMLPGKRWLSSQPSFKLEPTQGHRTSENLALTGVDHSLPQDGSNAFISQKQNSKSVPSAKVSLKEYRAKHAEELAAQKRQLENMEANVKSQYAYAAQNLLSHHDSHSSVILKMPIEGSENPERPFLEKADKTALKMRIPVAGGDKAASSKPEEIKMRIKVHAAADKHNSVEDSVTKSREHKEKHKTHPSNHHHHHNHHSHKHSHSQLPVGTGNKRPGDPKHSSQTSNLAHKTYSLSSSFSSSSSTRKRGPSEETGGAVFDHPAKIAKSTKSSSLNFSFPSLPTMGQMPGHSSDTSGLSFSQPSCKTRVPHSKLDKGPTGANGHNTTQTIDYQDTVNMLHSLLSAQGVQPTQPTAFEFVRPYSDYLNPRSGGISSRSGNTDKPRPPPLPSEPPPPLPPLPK
Sequence of CDK5/p25NCK (Q00535 whole entry, species assumed): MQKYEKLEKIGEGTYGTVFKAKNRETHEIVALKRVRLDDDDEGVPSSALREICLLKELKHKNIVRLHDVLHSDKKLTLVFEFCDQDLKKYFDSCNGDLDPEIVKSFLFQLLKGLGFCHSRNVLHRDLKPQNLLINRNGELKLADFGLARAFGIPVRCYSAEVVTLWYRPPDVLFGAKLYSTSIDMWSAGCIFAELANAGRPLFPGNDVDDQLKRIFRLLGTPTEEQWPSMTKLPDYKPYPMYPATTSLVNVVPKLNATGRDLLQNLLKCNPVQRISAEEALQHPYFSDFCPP
Sequence of CDK5/p25NCK (Q15078 99-307 partner limits assumed, species assumed): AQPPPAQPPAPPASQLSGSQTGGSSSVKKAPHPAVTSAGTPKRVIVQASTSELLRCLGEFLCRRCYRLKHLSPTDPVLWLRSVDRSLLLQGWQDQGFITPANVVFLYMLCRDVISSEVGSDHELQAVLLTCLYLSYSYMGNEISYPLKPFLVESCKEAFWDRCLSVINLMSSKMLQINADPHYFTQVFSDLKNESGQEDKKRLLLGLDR
Sequence of CDK1/CycE1 (P06493 whole entry, species assumed): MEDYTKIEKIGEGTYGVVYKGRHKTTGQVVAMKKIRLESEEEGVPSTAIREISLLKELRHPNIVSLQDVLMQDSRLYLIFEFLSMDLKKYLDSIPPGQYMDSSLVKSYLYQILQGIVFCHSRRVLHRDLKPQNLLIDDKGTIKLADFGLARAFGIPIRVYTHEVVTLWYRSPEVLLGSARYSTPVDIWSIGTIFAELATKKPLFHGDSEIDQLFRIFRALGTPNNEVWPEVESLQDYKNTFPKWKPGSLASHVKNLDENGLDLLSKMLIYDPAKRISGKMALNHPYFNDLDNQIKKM
Sequence of CDK1/CycE1 (P24864 whole entry partner, species assumed): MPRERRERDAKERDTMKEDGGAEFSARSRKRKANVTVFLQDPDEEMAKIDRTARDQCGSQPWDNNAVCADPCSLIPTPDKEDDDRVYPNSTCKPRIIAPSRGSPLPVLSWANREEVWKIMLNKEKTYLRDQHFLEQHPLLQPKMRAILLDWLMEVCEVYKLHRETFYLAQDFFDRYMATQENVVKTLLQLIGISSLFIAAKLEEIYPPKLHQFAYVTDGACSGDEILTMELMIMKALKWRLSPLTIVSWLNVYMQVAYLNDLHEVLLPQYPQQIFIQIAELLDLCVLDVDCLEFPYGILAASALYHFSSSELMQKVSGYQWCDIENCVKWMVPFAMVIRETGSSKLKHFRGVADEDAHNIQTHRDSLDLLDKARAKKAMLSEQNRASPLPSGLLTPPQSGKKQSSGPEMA
Sequence of CDK3/CycE1 (Q00526 whole entry, species assumed): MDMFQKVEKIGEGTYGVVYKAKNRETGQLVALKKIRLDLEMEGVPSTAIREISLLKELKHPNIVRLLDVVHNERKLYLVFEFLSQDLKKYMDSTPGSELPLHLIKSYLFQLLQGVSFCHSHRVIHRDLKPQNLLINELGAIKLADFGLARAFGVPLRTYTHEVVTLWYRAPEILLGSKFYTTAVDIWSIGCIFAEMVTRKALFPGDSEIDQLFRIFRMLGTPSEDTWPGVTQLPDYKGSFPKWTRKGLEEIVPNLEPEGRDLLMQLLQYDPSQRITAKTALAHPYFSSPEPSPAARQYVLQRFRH
Sequence of CDK3/CycE1 (P24864 whole entry partner, species assumed): as the sequence (P24864 whole entry partner, species assumed) above

SMILES	IC50 (CDK9/CycT1)	IC50 (CDK1/CycE1)	IC50 (CDK2/CycA2)	IC50 (CDK3/CycE1)	IC50 (CDK5/p25NCK)
CC(C)Nc1nc(C#N)cc2cnc(NC3CC4(CNC4)C3)nc12 [Compound 130, 2-((2-azaspiro[3.3]heptan-6-yl)amino)-8-(isopropylamino)pyrido[3,4-d]pyrimidine-6-carbonitrile]	2 nM	25 nM	74 nM	32 nM	447 nM
CC(C)Nc1nc(C#N)cc2cnc(N[C@H]3CCCNCC3)nc12 [Compound 131, (S)-2-(azepan-4-ylamino)-8-(isopropylamino)pyrido[3,4-d]pyrimidine-6-carbonitrile]	6 nM	678 nM	388 nM	629 nM	1530 nM
CC(C)Nc1nc(C#N)cc2cnc(N[C@H]3CC[C@H](N)CC3)nc12 [Compound 136, 2-(((1r,4r)-4-aminocyclohexyl)amino)-8-(isopropylamino)pyrido[3,4-d]pyrimidine-6-carbonitrile]	2 nM	315 nM	13 nM	27 nM	116 nM
CC(C)Nc1nc(C#N)cc2cnc(N[C@H]3CCCCNC3)cc12 [Compound 142, (S)-7-(azepan-3-ylamino)-1-(isopropylamino)-2,6-naphthyridine-3-carbonitrile]	2 nM	90 nM	600 nM	66 nM	306 nM
N#Cc1cc2cnc(N[C@H]3CCCNC3)cc2c(NC2CCC2)n1 [Compound 144, (S)-1-(cyclobutylamino)-7-(piperidin-3-ylamino)-2,6-naphthyridine-3-carbonitrile]	2 nM	90 nM	146 nM	28 nM	195 nM
CC1(Nc2nc(C#N)cc3cnc(N[C@H]4CCCNC4)cc23)CC1 [Compound 148, (S)-1-((1-methylcyclopropyl)amino)-7-(piperidin-3-ylamino)-2,6-naphthyridine-3-carbonitrile]	1 nM	104 nM	171 nM	49 nM	165 nM
CC(C)(C)Nc1nc(C#N)cc2cnc(N[C@H]3CCCNC3)cc12 [Compound 149, (S)-1-(tert-butylamino)-7-(piperidin-3-ylamino)-2,6-naphthyridine-3-carbonitrile]	1 nM	42 nM	126 nM	60 nM	295 nM
N#Cc1cc2cnc(N[C@H]3CCCNC3)cc2c(N[C@@H]2CCOC2)n1 [Compound 150, 7-(((S)-piperidin-3-yl)amino)-1-(((R)-tetrahydrofuran-3-yl)amino)-2,6-naphthyridine-3-carbonitrile]	2 nM	608 nM	450 nM	281 nM	1460 nM
N#Cc1cc2cnc(N[C@H]3CCCNC3)cc2c(N[C@H]2CCOC2)n1 [Compound 151, 7-(((S)-piperidin-3-yl)amino)-1-(((S)-tetrahydrofuran-3-yl)amino)-2,6-naphthyridine-3-carbonitrile]	8 nM	411 nM	1290 nM	832 nM	4140 nM
CC(C)(C)Oc1nc(C#N)cc2cnc(N[C@H]3CCCNC3)cc12 [Compound 152, (S)-1-(tert-butoxy)-7-(piperidin-3-ylamino)-2,6-naphthyridine-3-carbonitrile]	2 nM	110 nM	267 nM	124 nM	1000 nM
CC(C)Oc1nc(C#N)cc2cnc(N[C@H]3CCCNC3)cc12 [Compound 153, (S)-1-(isopropoxy)-7-(piperidin-3-ylamino)-2,6-naphthyridine-3-carbonitrile]	2 nM	133 nM	562 nM	67 nM	706 nM
N#Cc1cc2cnc(N[C@H]3CCCNC3)cc2c(O[C@@H]2CCOC2)n1 [Compound 154, 7-(((S)-piperidin-3-yl)amino)-1-(((R)-tetrahydrofuran-3-yl)oxy)-2,6-naphthyridine-3-carbonitrile]	5 nM	1020 nM	2320 nM	371 nM	3840 nM
N#Cc1cc2cnc(N[C@H]3CCCNC3)cc2c(NC2CC2)n1 [Compound 175, (S)-1-(cyclopropylamino)-7-(piperidin-3-ylamino)-2,6-naphthyridine-3-carbonitrile]	3 nM	234 nM	489 nM	1480 nM	435 nM
CCNc1nc(C#N)cc2cnc(N[C@H]3C[C@H](N)C3)cc12 [Compound 184, 7-(((trans)-3-aminocyclobutyl)amino)-1-(ethylamino)-2,6-naphthyridine-3-carbonitrile]	1 nM	163 nM	125 nM	990 nM	96 nM
CCNc1nc(C#N)cc2cnc(N[C@H]3CCCNC3)cc12 [Compound 186, (S)-1-(ethylamino)-7-(piperidin-3-ylamino)-2,6-naphthyridine-3-carbonitrile]	3 nM	336 nM	352 nM	915 nM	176 nM
CCOc1nc(C(F)F)cc2cnc(N[C@H]3C[C@H](N)C3)cc12 [Compound 200, (trans)-N^1-(7-(difluoromethyl)-5-ethoxy-2,6-naphthyridin-3-yl)cyclobutane-1,3-diamine]	2 nM	149 nM	244 nM	1100 nM	263 nM
FC(F)c1cc2cnc(N[C@H]3CCCNC3)cc2c(N[C@@H]2CCOC2)n1 [Compound 201, 3-(difluoromethyl)-N7—((S)-piperidin-3-yl)-N^1—((R)-tetrahydrofuran-3-yl)-2,6-naphthyridine-1,7-diamine]	2 nM	215 nM	83 nM	189 nM	53 nM
FC(F)c1cc2cnc(N[C@H]3CCCNC3)cc2c(O[C@@H]2CCOC2)n1 [Compound 202, 7-(difluoromethyl)-N—((S)-piperidin-3-yl)-5-(((R)-tetrahydrofuran-3-yl)oxy)-2,6-naphthyridin-3-amine]	4 nM	521 nM	337 nM	398 nM	168 nM
CC1(Oc2nc(C#N)cc3cnc(N[C@H]4CCCNC4)cc23)CC1 [Compound 204, (S)-1-(1-methylcyclopropoxy)-7-(piperidin-3-amino)-2,6-naphthyridine-3-carbonitrile]	2 nM	903 nM	1010 nM	1410 nM	523 nM
CC(C)(C)Nc1nc(C(F)F)cc2cnc(N[C@H]3CCCNC3)nc12 [Compound C1]	2 nM	7 nM	21 nM	7 nM	17 nM
CC(C)(C)Nc1nc(C(F)F)cc2cnc(NC3CCNCC3)nc12 [Compound C2, N^8-(tert-butyl)-6-(difluoromethyl)-N^2-(piperidin-4-yl)pyrido[3,4-d]pyrimidine-2,8-diamine]	4 nM	48 nM	48 nM	53 nM	465 nM
CC(C)Nc1nc(C#N)cc2cnc(N[C@@H]3CN4CCC3CC4)nc12 [Compound C45, (S)-8-(isopropylamino)-2-(quinuclidin-3-ylamino)pyrido[3,4-d]pyrimidine-6-carbonitrile]	6 nM	467 nM	1310 nM	340 nM	7980 nM
CC(C)Nc1nc(C(F)(F)F)cc2cnc(N[C@H]3CCCNC3)nc12 [Compound C46, (S)—N^8-isopropyl-N^2-(piperidin-3-yl)-6-(trifluoromethyl)pyrido[3,4-d]pyrimidine-2,8-diamine]	2 nM	19 nM	33 nM	8 nM	60 nM
